Experimental data: patent publication US7582649B2, “Hydroxy alkyl substituted 1,3,8-triazaspiro[4.5]decan-4-one derivatives useful for the treatment of ORL-1 receptor mediated disorders” (Janssen Pharmaceutica, NV, priority 2002, dated 2009)
Read-outs that look alike come from different tables or passages of the source.

Columns and labels:
[1] = tested on: rats; settings: rat, in vivo, ip
[2] = molecular target: D2 receptor (Homo sapiens, UniProt P14416); assay: Filtration binding assay, dopamine (Spiperone-I125)
Sequence of D2 receptor (P14416 whole entry): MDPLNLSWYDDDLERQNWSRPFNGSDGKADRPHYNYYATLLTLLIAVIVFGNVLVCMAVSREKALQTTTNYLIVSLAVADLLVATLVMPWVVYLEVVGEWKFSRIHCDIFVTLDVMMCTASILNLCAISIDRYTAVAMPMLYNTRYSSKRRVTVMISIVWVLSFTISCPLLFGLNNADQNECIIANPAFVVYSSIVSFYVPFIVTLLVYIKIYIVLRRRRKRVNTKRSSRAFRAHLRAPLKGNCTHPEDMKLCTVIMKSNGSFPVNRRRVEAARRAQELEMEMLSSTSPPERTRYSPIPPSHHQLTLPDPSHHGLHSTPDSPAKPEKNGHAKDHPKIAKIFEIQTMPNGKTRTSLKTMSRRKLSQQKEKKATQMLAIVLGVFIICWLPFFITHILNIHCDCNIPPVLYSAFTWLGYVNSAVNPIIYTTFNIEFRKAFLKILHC

[3] = molecular target: mu opioid receptor (Homo sapiens, UniProt P35372); assay: Filtration binding assay: mu opioid receptor
Sequence of mu opioid receptor (P35372 whole entry): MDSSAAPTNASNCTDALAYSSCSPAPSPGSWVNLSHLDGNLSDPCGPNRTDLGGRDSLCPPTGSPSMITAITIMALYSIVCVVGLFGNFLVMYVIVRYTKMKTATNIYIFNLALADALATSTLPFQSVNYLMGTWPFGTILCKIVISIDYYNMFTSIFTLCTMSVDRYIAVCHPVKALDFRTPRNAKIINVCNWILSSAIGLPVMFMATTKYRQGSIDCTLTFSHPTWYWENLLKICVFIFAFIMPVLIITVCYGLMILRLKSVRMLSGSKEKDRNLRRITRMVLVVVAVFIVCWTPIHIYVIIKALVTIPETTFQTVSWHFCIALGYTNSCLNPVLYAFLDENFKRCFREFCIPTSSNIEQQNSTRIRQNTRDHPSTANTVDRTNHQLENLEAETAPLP

[4] = molecular target: kappa opioid receptor (Homo sapiens, UniProt P41145); assay: Filtration binding assay: kappa opioid receptor
Sequence of kappa opioid receptor (P41145 whole entry): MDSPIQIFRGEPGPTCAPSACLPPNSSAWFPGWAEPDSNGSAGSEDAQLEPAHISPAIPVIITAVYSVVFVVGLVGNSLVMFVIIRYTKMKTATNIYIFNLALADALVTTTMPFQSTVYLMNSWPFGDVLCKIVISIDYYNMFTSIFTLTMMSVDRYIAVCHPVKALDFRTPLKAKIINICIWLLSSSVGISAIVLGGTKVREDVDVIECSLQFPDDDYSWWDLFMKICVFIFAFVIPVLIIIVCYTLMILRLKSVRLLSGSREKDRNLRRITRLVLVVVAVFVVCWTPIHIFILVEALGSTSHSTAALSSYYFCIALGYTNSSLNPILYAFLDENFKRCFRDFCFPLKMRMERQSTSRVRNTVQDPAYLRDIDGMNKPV

[5] = molecular target: delta opioid receptor (Homo sapiens, UniProt P41143); assay: Filtration binding assay: delta opioid receptor
Sequence of delta opioid receptor (P41143 whole entry): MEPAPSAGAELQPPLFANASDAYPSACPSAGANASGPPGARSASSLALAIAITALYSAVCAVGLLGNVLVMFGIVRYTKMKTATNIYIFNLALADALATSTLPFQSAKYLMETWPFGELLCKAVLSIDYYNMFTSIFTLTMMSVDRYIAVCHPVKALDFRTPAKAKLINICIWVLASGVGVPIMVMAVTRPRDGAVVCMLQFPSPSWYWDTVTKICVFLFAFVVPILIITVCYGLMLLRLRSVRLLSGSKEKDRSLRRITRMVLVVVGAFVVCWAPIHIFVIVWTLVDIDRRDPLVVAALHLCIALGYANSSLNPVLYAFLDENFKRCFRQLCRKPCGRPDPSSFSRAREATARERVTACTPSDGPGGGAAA

Row | SMILES | IC50 [3] | IC50 [4] | IC50 [5] | Ki [3] | Ki [4] | Ki [5] | also measured
1 | CCCCN(Cc1ccccc1)C[C@H](O)CN1CN(c2ccc(F)cc2)C2(CCN(CC3CCCCCCC3)CC2)C1=O [Compound #64, 3-[3-(Benzyl-butyl-amino)-2-(S)-hydroxy-propyl]-8-cyclooctylmethyl-1-(4-fluoro-phenyl)-1,3,8-triaza-spiro[4.5]decan-4-one] |  |  |  |  |  |  | % Increase Mean No. of Shocks ([1]; 0.3 mg/kg): −10%; % Increase Mean No. of Shocks ([1]; 1 mg/kg): 25%; % Increase Mean No. of Shocks ([1]; 3 mg/kg): 96%; % Increase Mean No. of Shocks ([1]; 10 mg/kg): 150%; % Increase Mean No. of Shocks ([1]; 30 mg/kg): −26%
2 | O=C1N(C[C@@H](O)CNc2ccncc2)CN(c2ccc(F)cc2)C12CCN(C1Cc3cccc4cccc1c34)CC2 (stereo partly shown) [Compound #327, 8-Acenaphthen-1-yl-1-(4-fluoro-phenyl)-3-[2-hydroxy-3-(pyridin-4-ylamino)-propyl]-1,3,8-triaza-spiro[4.5]decan-4-one] |  |  |  |  |  |  | IC50 [2]: 387 nM
3 | CCN(C)C[C@H](O)CN1CN(c2ccc(F)cc2)C2(CCN(Cc3cccc4cccc(C)c34)CC2)C1=O [Compound #440, 3-[3-(Ethyl-methyl-amino)-2-hydroxy-(S)-propyl]-1-(4-fluoro-phenyl)-8-(8-methyl-naphthalen-1-ylmethyl)-1,3,8-triaza-spiro[4.5]decan-4-one] | > 10000 nM | > 10000 nM |  |  |  |  | IC50 ([2]; D2 receptor, Spiperone-I125, read-out: IC50): 1520 nM
4 | O=C1N(C[C@@H](O)CNCc2ccccn2)CN(c2ccc(F)cc2)C12CCN(CC1CCCCCCC1)CC2 [compound 39] | 8830 nM | 3250 nM | > 10000 nM |  |  |  | 
5 | Cc1ccc(CNC[C@H](O)CN2CN(c3ccc(F)cc3)C3(CCN(CC4CCCCCCC4)CC3)C2=O)cc1 [compound 41] | 2100 nM | 250 nM | > 10000 nM |  |  |  | 
6 | CCCCN(Cc1ccccc1)C[C@H](O)CN1CN(c2ccccc2)C2(CCN(C3Cc4cccc5c4[C@@H](CCC5)C3)CC2)C1=O (stereo partly shown) [compound 54] | 350 nM | 110 nM | > 10000 nM |  |  |  | 
7 | CN(C)CCN(Cc1ccccc1)C[C@H](O)CN1CN(c2ccc(F)cc2)C2(CCN(CC3CCCCCCC3)CC2)C1=O [compound 63] | 3430 nM | 230 nM | 8780 nM |  |  |  | 
8 | CC1CN(C[C@H](O)CN2CN(c3ccc(F)cc3)C3(CCN(CC4CCCCCCC4)CC3)C2=O)CC(C)O1 (stereo partly shown) [compound 75] | 980 nM | 300 nM | > 10000 nM |  |  |  | 
9 | CC(=O)NC(CSC[C@H](O)CN1CN(c2ccc(F)cc2)C2(CCN(CC3CCCCCCC3)CC2)C1=O)C(=O)O (stereo partly shown) [compound 100] |  |  |  |  |  |  | IC50 ([3]; mean where tested more than once, read-out: Mu IC50): 230 nM; IC50 ([4]; mean where tested more than once, read-out: Kappa IC50): 280 nM; IC50 ([5]; mean where tested more than once, read-out: Delta IC50): > 10000 nM
10 | CC(C)(C)N(Cc1ccccc1)C[C@H](O)CN1CN(c2ccc(F)cc2)C2(CCN(Cc3cccc4ccccc34)CC2)C1=O [compound 250] | 1200 nM | 380 nM | > 10000 nM |  |  |  | 
11 | O=C1N(C[C@@H](O)CNCCN2CCOCC2)CN(c2ccc(F)cc2)C12CCN(Cc1cccc3ccccc13)CC2 [compound 251] | 1580 nM | 450 nM | > 10000 nM |  |  |  | 
12 | CCN(Cc1ccc(C)cc1)C[C@H](O)CN1CN(c2ccc(F)cc2)C2(CCN(Cc3cccc4ccccc34)CC2)C1=O [compound 252] | 3700 nM | 1340 nM | > 10000 nM |  |  |  | 
13 | COc1ccc(CCNC[C@H](O)CN2CN(c3ccc(F)cc3)C3(CCN(Cc4cccc5ccccc45)CC3)C2=O)cc1OC [compound 253] | 760 nM | 400 nM | 2160 nM |  |  |  | 
14 | O=C1N(C[C@@H](O)CNCCc2ccc3c(c2)OCO3)CN(c2ccc(F)cc2)C12CCN(Cc1cccc3ccccc13)CC2 [compound 254] | 2830 nM | 800 nM | > 10000 nM |  |  |  | 
15 | COc1cc(CCNC[C@H](O)CN2CN(c3ccc(F)cc3)C3(CCN(Cc4cccc5ccccc45)CC3)C2=O)c([N+](=O)[O-])cc1OC [compound 255] | 2490 nM | 620 nM | > 10000 nM |  |  |  | 
16 | COc1ccc(CCN(C)C[C@H](O)CN2CN(c3ccc(F)cc3)C3(CCN(Cc4cccc5ccccc45)CC3)C2=O)cc1OC [compound 256] | 5450 nM | 1180 nM | > 10000 nM |  |  |  | 
17 | COc1ccc(CCNC[C@H](O)CN2CN(c3ccc(F)cc3)C3(CCN(Cc4ccc5ccccc5c4)CC3)C2=O)cc1OC [compound 261] | 1560 nM | 270 nM | > 10000 nM |  |  |  | 
18 | COc1ccc(CNC[C@H](O)CN2CN(c3ccc(F)cc3)C3(CCN(Cc4cccc5cccc(C)c45)CC3)C2=O)cc1 [compound 398] | > 10000 nM | 250 nM | > 10000 nM |  |  |  | 
19 | CCN(C)C[C@H](O)CN1CN(c2ccc(F)cc2)C2(CCN([C@H]3Cc4cccc5cccc3c45)CC2)C1=O [compound 433] |  |  |  |  |  |  | IC50 [2]: 3520 nM
20 | O=C1N(C[C@H]2CO2)CN(c2ccc(F)cc2)C12CCN(Cc1ccc3ccccc3c1)CC2 [compound 542] | 160 nM | 530 nM | > 10000 nM |  |  |  | 
21 | CC1(C)[C@H]2CC=C(CN3CCC4(CC3)C(=O)N(C[C@@H](O)CN)CN4c3ccc(F)cc3)[C@@H]1C2 [compound 619] |  |  |  | 140 nM | 170 nM | > 5000 nM | 
22 | COCCCNC[C@H](O)CN1CN(c2ccc(F)cc2)C2(CCN(Cc3cccc4cccc(C)c34)CC2)C1=O [compound 650] |  |  |  | 740 nM | 460 nM | > 5000 nM | 
23 | CNCCCNC[C@H](O)CN1CN(c2ccccc2)C2(CCN([C@H]3CC[C@@H]4CCCc5cccc3c54)CC2)C1=O [compound 658] |  |  |  | 170 nM | 130 nM | > 5000 nM | 
24 | Cc1cccc2cccc(CN3CCC4(CC3)C(=O)N(C[C@H](O)CNCCCNC(=O)OC(C)(C)C)CN4c3ccc(F)cc3)c12 [compound 665] |  |  |  | 2710 nM | 290 nM | > 5000 nM | 
25 | Cc1cccc2cccc(CN3CCC4(CC3)C(=O)N(C[C@H](O)CNCCN(C)C(=O)OC(C)(C)C)CN4c3ccc(F)cc3)c12 [compound 667] |  |  |  | 770 nM | 450 nM | 4140 nM | 
26 | O=C1N(C[C@H](O)CN2C(CO)C(O)C(O)C2CO)CN(c2ccc(F)cc2)C12CCN(C1CCCCCCC1)CC2 (stereo partly shown) [compound 688] |  |  |  | 110 nM | 160 nM | > 5000 nM | 
27 | Cc1cccc2cccc(CN3CCC4(CC3)C(=O)N(C[C@H](O)CN3CCCC3)CN4c3ccc(F)cc3)c12 [compound 705] |  |  |  | 1500 nM | 710 nM | > 5000 nM | 
28 | Cc1cccc2cccc(CN3CCC4(CC3)C(=O)N(C[C@H](O)CN3CC[C@@H](NC(=O)OC(C)(C)C)C3)CN4c3ccc(F)cc3)c12 [compound 710] |  |  |  | 1090 nM | 360 nM | > 5000 nM | 
29 | Cc1cccc2cccc(CN3CCC4(CC3)C(=O)N(CC(O)CN3CCC(N(C)C(=O)OC(C)(C)C)C3)CN4c3ccc(F)cc3)c12 (stereo not shown) [compound 721] |  |  |  | 590 nM | 170 nM | > 5000 nM | 
30 | CC1(C)[C@H]2CC=C(CN3CCC4(CC3)C(=O)N(C[C@@H]3CO3)CN4c3ccc(F)cc3)[C@@H]1C2 [compound 727] |  |  |  | 120 nM | 210 nM | > 5000 nM | 
